Patent US10017713B2, “Fluorinated surfactant containing compositions” (3M INNOVATIVE PROPERTIES COMPANY, priority 2014, dated 2018)

How the values were obtained:
[1] = Cleaning performance: % particle removal from heavily soiled CMOS sensors
Method: A study was conducted using Novec 7100 and Novec 71IPA base solvents with and without the soluble surfactants identified above to determine the impact of dissolved surfactant on cleaning performance of the fluids. In some cases a single surfactant was employed. In other cases a mixture of two surfactants was employed. In all cases the total concentration of fluorochemical surfactant employed was 0.20 wt % (or 2000 ppm) in the base fluid. Cleaning results were compared to pure Novec fluid controls containing no surfactant. The cleaning trials were performed on heavily soiled CMOS sensors containing a high pixel density. These sensors are known to be extremely difficult to clean such that they are essentially free of (particle contaminants.
A precision solvent cleaning system (SK-04Y-6008 customized cleaning system from YMPT, Thailand) was used to clean the CMOS sensors using the process outlined below.
The cleaning performance of each cleaning fluid composition was judged based on the percentage of particles originally present on the CMOS surface that were removed by the cleaning fluid after completion of the cleaning process. The percentage of particles removed was determined by optical microscopy inspection of the CMOS sensors before and after cleaning.
The original (heavily soiled) CMOS sensor was first inspected using an optical microscope and a series of Pre-Clean images were recorded. The CMOS sensor was then cleaned in the precision cleaning system using the process described above and the proscribed solvent/surfactant combination. After cleaning, the CMOS sensor was inspected again by optical microscopy and a Post-Clean image recorded to determine particle counts remaining on the sensor. In this way, the % removal of particles after cleaning of CMOS sensors was determined.

[2] = Surfactant solubility in hydrofluoroether (HFE) solvents by visual clarity; assay type: physicochemical
Method: A series of C4F9SO2N-based fluorochemical surfactants were examined to determine their solubility in various hydrofluoro ether (HFE) solvents, including four segregated HFEs (Novec 7100, 7200, 7300, and 7500 available from 3M Company, St Paul, Minn.), one non-segregated HFE (PF-7600 available from 3M Company), and one HFE-Alcohol blend (Novec 71IPA available from 3M Company). Solubility was determined by preparing mixtures of each surfactant in the solvent at various concentrations and determining solubility at each concentration by visual inspection based on the clarity of the solutions after thorough mixing at room temperature. Surfactants that were not completely soluble at a given concentration produced hazy mixtures, whereas surfactants that were completely soluble at a given concentration produced clear homogeneous solutions with no haze. The highest concentration of each surfactant to give a clear, homogeneous solution in each HFE solvent (expressed as wt % surfactant dissolved in HFE solvent) was taken as the maximum solubility.

[3] = Novec 71IPA, total surfactant 0.20 wt %
[4] = Novec 71IPA, room temperature (23° C.)
[5] = Novec 7100, room temperature (23° C.)
[6] = Novec 7200, room temperature (23° C.)
[7] = Novec 7300, room temperature (23° C.)
[8] = Novec 7500, room temperature (23° C.)
[9] = PF-7600, room temperature (23° C.)

Compound	% Removal (Percent Particle Removal) [1, 3]	% Removal (Percent Particle Removal) ([1]; Novec 7100, surfactant 0.2 %)	Max. Solubility [2, 4] [wt %]	Max. Solubility [2, 5] [wt %]	Max. Solubility [2, 6]	Max. Solubility [2, 7]	Max. Solubility [2, 8] [wt %]	Max. Solubility [2, 9]	melting point [°C]	solubility in HFE solvents ([2]; room temperature)
O=S(=O)(N(CCOCCO)CCOCCO)C(F)(F)C(F)(F)C(F)(F)C(F)(F)F [FBS(EE)2 (IV), C4F9SO2N(CH2CH2OCH2CH2OH)2]	50-80%	50-80%	>10	>10	0.2-0.5 wt %	0.2-0.3 wt %	0.2	8-9 wt %		
O=S(=O)(N(CCO)CCOCCO)C(F)(F)C(F)(F)C(F)(F)C(F)(F)F [FBSE(EE) (V), C4F9SO2N(CH2CH2OCH2CH2OH) (CH2CH2OH)]	90-100%	90-100%	>10	1.5	0.8 wt %	0.9 wt %	0.2	>10 wt %	45.1	
O=S(=O)(N(CCO)CCO)C(F)(F)C(F)(F)C(F)(F)C(F)(F)F [FBSEE (IX), C4F9SO2N(CH2CH2OH)2]	90-100%		8.1	0.06	0.04 wt %	0.03 wt %		0.6 wt %		
CC(O)CN(CCO)S(=O)(=O)C(F)(F)C(F)(F)C(F)(F)C(F)(F)F (stereo not drawn) [FBSEP (VIII), C4F9SO2N(CH2CH2OH)CH2CH(CH3)OH]			>10	4.0		1.4 wt %		>10 wt %		improved solubility
O=S(=O)(NCCOCCO)C(F)(F)C(F)(F)C(F)(F)C(F)(F)F [H-FBS(EE) (III), C4F9SO2N(H)CH2CH2OCH2CH2OH]	50-80%	50-80%	>10	>10	>10 wt %	>10 wt %	>10	>10 wt %	35.7	
O=S(=O)(NCCO)C(F)(F)C(F)(F)C(F)(F)C(F)(F)F [H-FBSE (X), C4F9SO2NH(CH2CH2OH)]	50-80%		>10	0.21	0.16 wt %	0.06 wt %		1.5 wt %		
C4F9SO2N(CH3)(CH2CH2O)7CH3 [FC-4171 (XI), reference compound]	50-80%	50-80%	>10	>10	>10 wt %	0.5 wt %	0.1	>10 wt %		
